Reference: patent publication US10016382B2, “Method for decreasing skeletal muscle damage and/or oxidative stress in mammals” (LONZA INC., priority 2014, dated 2018)
“And” between values parts separate entries of the source, which are not always exact repeats. Identical values can stand only once. Marks after values point to notes of the source that are not given here.

Tests used:
[1] = test system: Thiobarbituric acid reactive substances (TBARS); assay: Serum TBARS (oxidative stress), Example 1; format: in vivo, dog; conditions: for TBARS, serum, Mean / Change in TBARS, post-run minus pre-run: Ex.1, 250 mg/d; for Change in TBARS, post-run minus pre-run: following 15 mile long run at 13 wk, mean ± SEM
Experimental: Blood Analysis: Serum samples were taken at three different times from each dog during the 90 day period. The blood samples were collected as follows: 1.) just prior to scanning each dog for body composition at the beginning of the study, 2.) prior to the long run on the 13th week, and 3.) following the long run on the 13th week. The serum samples were analyzed for Phosphocreatine Kinase and Canine Myoglobin to determine the amount of muscle protein leakage that occurred following the long run and TBARS and Total Antioxidant Capacity (TAC) were determined to evaluate the antioxidant status of each of the test dogs during the exercise program. The final blood sample was taken 24 hr after the long run to obtain maximum protein leakage based on previous similar types of exercise research with human athletes. Biomarkers and Assay Methods: Blood was drawn from each dog using a serum separator tube at three different times during the 90 day period: 1.) just prior to scanning each dog for body composition at the beginning of the study, 2.) prior to the long run on the 13th week, and 3.) following the long run on the 13th week. The final blood sample was taken 24 hr after the long run to obtain maximum protein leakage based on previous similar types of exercise research with human athletes. Each time after the blood was drawn it was allowed to clot before being centrifuged for 15 min at 2000 g at 4° C. Serum was aliquoted into 1.5 mL microcentrifuge tubes and stored at −80° C. until assays were ran following the end of the study. Creatine kinase (CK) and canine myoglobin were measured to determine the amount of muscle protein leakage that occurred following the long run. Thiobarbituric acid reactive substances (TBARS) and total antioxidant capacity (TAC) were measured to evaluate the antioxidant status of each of the test dogs during the exercise program. Serum samples were analyzed for total antioxidant capacity (TAC) and thiobarbituric acid reactive substances (TBARS) using commercially available colorimetric kits supplied by Cayman Chemical Company (Ann Arbor, Mich.) per manufacturer instructions. Serum canine myoglobin levels were determined using a commercially available ELISA supplied by Innovate Research (Novi, Mich.) per manufacturer instructions. Creatine kinase activity was determined colorimetrically using a commercially available kit supplied by BioVision (San Francisco, Calif.).

skeletal muscle = assay: Fractional breakdown rate (FBR) of skeletal muscle, 3-methylhistidine, Example 2 part two; format: in vivo, dog; conditions: for FBR: run, muscle samples
From the text: Twenty-six Labrador Retrievers ranging in age from 1.5 to 4.5 years were chosen from part one of the study and were fed for an additional 60 days following the termination of part one of the study. Test dogs remained in their previous treatment groups. Measurements on Actical movements/kg BW/mile endurance runs obtained during part one of the study were utilized to ensure that both the control and the L-carnitine groups were equal for performance potential. The lean body mass of the test dogs was determined by scanning with the DEXA as an additional measure for ensuring equal groups. Twelve dogs (6 males and 6 females) were assigned to each treatment group. Two additional dogs (1 male and 1 female) were fed the low carnitine basal diet of the control group and were used as controls that were not enriched with isotopes during the study; these two control dogs were used to measure the natural amount of 15N Phe in the sample. During the 60 day trial, the test dogs were fed low-carnitine basal diets with or without L-carnitine supplementation in a manner analogous to that of part one of the study. For three days prior to the final muscle biopsy and blood collection, all test dogs were feed an “all vegetarian plus egg” diet from Purina LabDiet that had nutrient specifications that were equivalent to that of the low carnitine basal diet. […] At the end of the 60 day training program, 24 of the dogs (12 resting and 12 running) were infused with a bolus dose of 15N Phe. […] Forty-five minutes after infusion, a 5 mm Bergstrom muscle biopsy needle was used to take a biopsy of the biceps femoris muscle. The muscle samples were quickly frozen in liquid nitrogen and placed in a −80° C. freezer for later analysis]. Twenty-four hours after the resting dogs were infused with 15N Phe, the remaining 12 dogs (6 non-carnitine; 3 male and 3 female and 6 L-carnitine; 3 male and 3 female) were run for a 15 mile endurance run. Following a 30 minute period of measured physiological recovery (heart rate and body temperature), test dogs that completed the 15 mile run were infused with a 2% 15N Phe solution as described above; muscle biopsies were taken 45 minutes after infusion. Blood samples were taken from the carotid artery for each test dog and analyzed for 3 MH. Three days prior to taking the blood samples, the dogs were fed the “all vegetable plus egg” non-meat diet from Purina LabDiet to ensure that the 3 MH found in the blood represented the skeletal muscle protein breakdown. To process the samples, the acid-soluble fraction containing free amino acids was removed by addition of 2% (w/v) perchloric acid. After homogenization, samples were centrifuged at 3,000×g, and the supernatant, containing free amino acids, was removed. The protein precipitate was washed three times with 2% perchloric acid before being hydrolyzed in 6N HCL. The supernatant and precipitate, respectively, were then run through an ion-exchange column packed with Dowex 50WX8-200. Phenylalanine and 3-methylhistidine (3-MH) were eluted with 2 mL of 4N NH4OH and 1 mL of nanopure H2O into a new vial and then dried under vacuum. The tert-butyldimethylsilyl (tBDMS) derivative was formed by adding 800 μL of C2CH3CN-MTBSTFA (1:1) and incubating at 110° C. for 60 minutes. The same mass spectrometer was used to determine 3-MH. […] The 238 m/z fragment of 3-MH was monitored. The muscle samples were analyzed for the fractional breakdown rate (FBR). FBR was calculated as kd=3-MH daily excretion/3-MH muscle pool×100. […]

C[N+](C)(C)C[C@H](O)CC(=O)[O-] [L-carnitine]
TBARS Least Sq Mean ([1]; Baseline): 12.53 μM MDA | TBARS Least Sq Mean ([1]; Baseline, F): 14.1 μM MDA | TBARS Least Sq Mean ([1]; Baseline, M): 10.96 μM MDA | TBARS, serum, Mean ([1]; Baseline, both sexes): 12.37 uM MDA | TBARS, serum, Mean ([1]; Baseline, females): 14.10 uM MDA | TBARS, serum, Mean ([1]; Baseline, males): 10.96 uM MDA | TBARS, serum, Mean ([1]; Post-run, both sexes): 12.59 uM MDA | TBARS, serum, Mean ([1]; Post-run, females): 14.47 uM MDA | TBARS, serum, Mean ([1]; Post-run, males): 11.06 uM MDA | TBARS, serum, Mean ([1]; Pre-run, both sexes): 12.18 uM MDA | TBARS, serum, Mean ([1]; Pre-run, females): 15.13 uM MDA | TBARS, serum, Mean ([1]; Pre-run, males): 9.77 uM MDA | Change in TBARS, post-run minus pre-run ([1]; both sexes): 0.41 μM MDA and 0.41 ± 0.71 n = 20 μM MDA | Change in TBARS, post-run minus pre-run ([1]; females): −0.7 ± 1.1 n = 9 μM MDA | Change in TBARS, post-run minus pre-run ([1]; males): 1.3 ± 0.9 n = 11 μM MDA | TBARS Least Sq Mean ([1]; Post-run): 12.76 μM MDA | TBARS Least Sq Mean ([1]; Post-run, F): 14.47 μM MDA | TBARS Least Sq Mean ([1]; Post-run, M): 11.06 μM MDA | TBARS Least Sq Mean ([1]; Pre-run): 12.45 μM MDA | TBARS Least Sq Mean ([1]; Pre-run, F): 15.13 μM MDA | TBARS Least Sq Mean ([1]; Pre-run, M): 9.77 μM MDA | TBARS Least Sq Mean ([1]; Treatment * Sex, F): 14.1 μM MDA | TBARS Least Sq Mean ([1]; Treatment * Sex, M): 10.96 μM MDA | TBARS Least Sq Mean ([1]; Treatment level, all dogs): 12.53 μM MDA | TBARS, mixed model Estimate, term Time[Post-run-Pre-run] * Treatment[L-carnitine] ([1]; serum, model term): −0.943 | TBARS, mixed model Estimate, term Time[Post-run-Pre-run] * Treatment[L-carnitine] * Sex[F] ([1]; serum, model term): −0.763 | TBARS, mixed model Estimate, term Time[Pre-run-Baseline] * Treatment[L-carnitine] ([1]; serum, model term): 0.8244 | TBARS, mixed model Estimate, term Time[Pre-run-Baseline] * Treatment[L-carnitine] * Sex[F] ([1]; serum, model term): 0.2021 | TBARS, mixed model Estimate, term Treatment[L-carnitine] ([1]; serum, model term): −0.5222 | TBARS, mixed model Estimate, term Treatment[L-carnitine] * Sex[F] ([1]; serum, model term): 0.4031 | Fractional Breakdown Rate (FBR) of muscle samples (skeletal muscle; Ex.2 part two, 250 mg/d, adjusted for gender and exercise state): 1.92% | FBR (% protein breakdown rate/day) of skeletal muscle (skeletal muscle; Ex.2 part two, 250 mg/d, exercised females (15 mile endurance run)): 3.26% | FBR of skeletal proteins (skeletal muscle; Ex.2 part two, 250 mg/d, running males): 1.26% | FBR (skeletal muscle; Female): 3.26^a % | FBR (skeletal muscle; Male): 1.26^a %
